Results from ChEMBL document CHEMBL1126639, “Centrally acting serotonergic and dopaminergic agents. 2. Synthesis and structure-activity relationships of 2,3,3a,4,9,9a-hexahydro-1H-benz[f]indole derivatives” (J Med Chem, 1993).

Key:
[1] = system: Mus musculus; test: Antagonism of apomorphine for 10-20 minutes in reserpinized mice when a dose of 0.4 micro mol/kg is administered intraperitoneally; assay type: functional
[2] = system: Mus musculus; test: Antagonism of apomorphine in reserpinized mice when a dose of 3.6 micro mol/kg is administered intraperitoneally; assay type: functional
[3] = system: Mus musculus; test: Ability to stimulate dopaminergic systems by effect on locomotor activity in reserpinized mice when a dose of 0.4 micro mol/kg is administered intraperitoneally; assay type: functional
[4] = system: Mus musculus; test: Antagonism of apomorphine for 0-10 minutes in reserpinized mice when a dose of 36 micro mol/kg is administered intraperitoneally; assay type: functional
[5] = system: Mus musculus; test: Ability to stimulate dopaminergic systems by effect on locomotor activity in reserpinized mice when a dose of 36 micro mol/kg is administered intraperitoneally; assay type: functional
[6] = system: Mus musculus; test: Antagonism of apomorphine in reserpinized mice when a dose of 36 micro mol/kg is administered intraperitoneally; assay type: functional
[7] = molecular target: T1, D(2) dopamine receptor (Homo sapiens, UniProt P14416); test: Binding affinity against [3H]U-86,170-labeled dopamine receptor D2 in cloned CHO cells; assay type: cell-based
T1 sequence (P14416 whole entry): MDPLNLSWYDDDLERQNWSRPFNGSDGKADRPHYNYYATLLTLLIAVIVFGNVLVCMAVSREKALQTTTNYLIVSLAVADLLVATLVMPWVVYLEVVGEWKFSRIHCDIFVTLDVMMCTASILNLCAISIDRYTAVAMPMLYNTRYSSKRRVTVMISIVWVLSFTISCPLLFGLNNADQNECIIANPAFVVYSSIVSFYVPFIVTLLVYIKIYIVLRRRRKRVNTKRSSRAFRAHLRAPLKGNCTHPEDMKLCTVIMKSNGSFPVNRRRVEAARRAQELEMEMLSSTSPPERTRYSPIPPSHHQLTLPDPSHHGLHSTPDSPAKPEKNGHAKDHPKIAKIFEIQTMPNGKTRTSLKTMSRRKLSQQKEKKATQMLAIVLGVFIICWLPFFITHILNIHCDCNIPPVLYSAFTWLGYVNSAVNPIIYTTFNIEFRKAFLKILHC

[8] = molecular target: T2, D(2) dopamine receptor (Rattus norvegicus, UniProt P61169); test: Inhibitory concentration against [3H]raclopride-labeled dopamine receptor D2 in rat striatum; assay type: tissue-based
T2 sequence (P61169 whole entry): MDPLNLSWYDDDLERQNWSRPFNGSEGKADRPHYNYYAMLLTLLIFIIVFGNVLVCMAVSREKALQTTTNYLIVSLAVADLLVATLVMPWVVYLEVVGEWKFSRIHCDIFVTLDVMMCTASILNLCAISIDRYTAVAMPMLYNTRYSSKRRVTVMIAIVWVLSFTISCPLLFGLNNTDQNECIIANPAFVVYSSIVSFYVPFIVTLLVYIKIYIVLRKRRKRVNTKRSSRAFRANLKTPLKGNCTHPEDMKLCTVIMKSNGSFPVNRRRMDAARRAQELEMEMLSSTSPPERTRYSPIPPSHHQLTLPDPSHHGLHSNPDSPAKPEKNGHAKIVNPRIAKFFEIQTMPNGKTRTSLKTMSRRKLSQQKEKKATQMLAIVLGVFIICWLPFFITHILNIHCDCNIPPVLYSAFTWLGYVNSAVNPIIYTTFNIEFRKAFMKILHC

[9] = system: Mus musculus; test: Antagonism of apomorphine for 10-20 minutes in reserpinized mice when a dose of 3.6 micro mol/kg is administered intraperitoneally; assay type: functional
[10] = system: Mus musculus; test: Antagonism of apomorphine for 10-20 minutes in reserpinized mice when a dose of 36 micro mol/kg is administered intraperitoneally; assay type: functional
[11] = system: Mus musculus; test: Antagonism of apomorphine for 0-10 minutes in reserpinized mice when a dose of 0.4 micro mol/kg is administered intraperitoneally; assay type: functional
[12] = system: Mus musculus; test: Ability to stimulate dopaminergic systems by effect on locomotor activity in reserpinized mice when a dose of 3.6 micro mol/kg is administered intraperitoneally; assay type: functional
[13] = system: Mus musculus; test: Antagonism of apomorphine in reserpinized mice when a dose of 0.4 micro mol/kg is administered intraperitoneally; assay type: functional
[14] = system: Mus musculus; test: Antagonism of apomorphine for 0-10 minutes in reserpinized mice when a dose of 3.6 micro mol/kg is administered intraperitoneally; assay type: functional
[15] = system: Mus musculus; test: Antagonism of apomorphine for 10-20 minutes in reserpinized mice when a dose of 37 micro mol/kg is administered intraperitoneally; assay type: functional
[16] = molecular target: T2, D(2) dopamine receptor; test: Binding affinity for [3H]raclopride-labeled dopamine receptor D2 in rat striatum; assay type: tissue-based
[17] = system: Mus musculus; test: Ability to stimulate dopaminergic systems by effect on locomotor activity in reserpinized mice when a dose of 3.7 micro mol/kg is administered intraperitoneally; assay type: functional
[18] = system: Mus musculus; test: Antagonism of apomorphine for 0-10 minutes in reserpinized mice when a dose of 37 micro mol/kg is administered intraperitoneally; assay type: functional
[19] = system: Mus musculus; test: Ability to stimulate dopaminergic systems by effect on locomotor activity in reserpinized mice when a dose of 37 micro mol/kg is administered intraperitoneally; assay type: functional
[20] = system: Mus musculus; test: Antagonism of apomorphine in reserpinized mice when a dose of 37 micro mol/kg is administered intraperitoneally; assay type: functional
[21] = system: Mus musculus; test: Antagonism of apomorphine for 0-10 minutes in reserpinized mice when a dose of 3.7 micro mol/kg is administered intraperitoneally; assay type: functional
[22] = molecular target: T1, D(2) dopamine receptor; test: Intrinsic activity from GTP shift using CHO cell membranes expressing dopamine receptor D2; assay type: functional
[23] = system: Rattus norvegicus; test: Inhibition of firing rates of dopaminergic neurons in the substantia nigra pars compacta by intravenous injection in rats.; assay type: functional
[24] = system: Mus musculus; test: Antagonism of apomorphine for 10-20 minutes in reserpinized mice when a dose of 3.7 micro mol/kg is administered intraperitoneally; assay type: functional
[25] = system: Mus musculus; test: Antagonism of apomorphine in reserpinized mice when a dose of 3.7 micro mol/kg is administered intraperitoneally; assay type: functional
[26] = system: Mus musculus; test: Antagonism of apomorphine for 10-20 minutes in reserpinized mice when a dose of 4.3 micro mol/kg is administered intraperitoneally; assay type: functional
[27] = system: Mus musculus; test: Antagonism of apomorphine in reserpinized mice when a dose of 4.3 micro mol/kg is administered intraperitoneally; assay type: functional
[28] = system: Mus musculus; test: Ability to stimulate dopaminergic systems by effect on locomotor activity in reserpinized mice when a dose of 4.3 micro mol/kg is administered intraperitoneally; assay type: functional
[29] = system: Mus musculus; test: Ability to stimulate dopaminergic systems by effect on locomotor activity in reserpinized mice when a dose of 43 micro mol/kg is administered intraperitoneally; assay type: functional
[30] = system: Mus musculus; test: Antagonism of apomorphine in reserpinized mice when a dose of 43 micro mol/kg is administered intraperitoneally; assay type: functional
[31] = system: Mus musculus; test: Antagonism of apomorphine for 0-10 minutes in reserpinized mice when a dose of 4.3 micro mol/kg is administered intraperitoneally; assay type: functional
[32] = system: Rattus norvegicus; test: Effect on the synthesis rates of dopamine (DOPA accumulation) in the rat ventral limbic brain region at 43.2 uM/kg.; assay type: functional, Limbic system
[33] = system: Rattus norvegicus; test: Effect on the synthesis rates of serotonin (5-HTP accumulation) in the rat ventral limbic brain region 43.2 umol/kg.; assay type: functional, Limbic system
[34] = system: Rattus norvegicus; test: Inhibition of firing rates of dopaminergic neurons in the substantia nigra pars compacta by intravenous injection in rats; assay type: functional
[35] = system: Mus musculus; test: Antagonism of apomorphine for 10-20 minutes in reserpinized mice when a dose of 43 micro mol/kg is administered intraperitoneally; assay type: functional
[36] = system: Mus musculus; test: Antagonism of apomorphine for 0-10 minutes in reserpinized mice when a dose of 43 micro mol/kg is administered intraperitoneally; assay type: functional
[37] = system: Mus musculus; test: Antagonism of apomorphine in reserpinized mice when a dose of 38 micro mol/kg is administered intraperitoneally; assay type: functional
[38] = system: Mus musculus; test: Antagonism of apomorphine in reserpinized mice when a dose of 3.8 micro mol/kg is administered intraperitoneally; assay type: functional
[39] = system: Mus musculus; test: Antagonism of apomorphine for 0-10 minutes in reserpinized mice when a dose of 3.8 micro mol/kg is administered intraperitoneally; assay type: functional
[40] = system: Mus musculus; test: Antagonism of apomorphine for 0-10 minutes in reserpinized mice when a dose of 38 micro mol/kg is administered intraperitoneally; assay type: functional
[41] = system: Mus musculus; test: Antagonism of apomorphine for 10-20 minutes in reserpinized mice when a dose of 38 micro mol/kg is administered intraperitoneally; assay type: functional
[42] = system: Rattus norvegicus; test: Inhibition of firing rates of serotonergic neurons in the dorsal raphe nucleus by intravenous injection in rats; assay type: functional; settings: Rattus norvegicus, Dorsal raphe nucleus, iv; read-out: ED50
[43] = system: Mus musculus; test: Antagonism of apomorphine for 10-20 minutes in reserpinized mice when a dose of 3.8 micro mol/kg is administered intraperitoneally; assay type: functional
[44] = system: Mus musculus; test: Ability to stimulate dopaminergic systems by effect on locomotor activity in reserpinized mice when a dose of 3.8 micro mol/kg is administered intraperitoneally; assay type: functional
[45] = system: Mus musculus; test: Ability to stimulate dopaminergic systems by effect on locomotor activity in reserpinized mice when a dose of 38 micro mol/kg is administered intraperitoneally; assay type: functional
[46] = molecular target: T2, D(2) dopamine receptor; test: Inhibitory concentration against [3H]raclopride-labeled dopamine receptor D2 in rat striatum was estimated from single point experiment. compound was run at 1 uM

## CCCN1CC[C@@H]2Cc3c(cccc3OC)C[C@H]21
[1]
  Locomotor activity: 30
[2]
  Locomotor activity: 72
[3]
  Locomotor activity: 581
[4]
  Locomotor activity: 21
[5]
  Locomotor activity: 308
[6]
  Locomotor activity: 14
[7]
  Ki: 75 nM
[8]
  IC50: > 1000 nM
[9]
  Locomotor activity: 12
[10]
  Locomotor activity: 20
[11]
  Locomotor activity: 20
[12]
  Locomotor activity: 851
[13]
  Locomotor activity: 86
[14]
  Locomotor activity: 18

## C=CCN1CC[C@H]2Cc3c(O)cccc3C[C@@H]21
[1]
  Locomotor activity: 119
[15]
  Locomotor activity: 103
[16]
  Ki: 47 nM
[3]
  Locomotor activity: 45
[17]
  Locomotor activity: 1
[18]
  Locomotor activity: 84
[7]
  Ki: 235 nM
[11]
  Locomotor activity: 121
[19]
  Locomotor activity: 113
[20]
  Locomotor activity: 77
[21]
  Locomotor activity: 109
[22]
  Intrinsic activity: 21%
[23]
  ED50: 0.94 µmol/kg
[24]
  Locomotor activity: 119
[25]
  Locomotor activity: 86
[13]
  Locomotor activity: 81

## CCCN1CC[C@H]2Cc3c(cccc3OC)C[C@@H]21
[8]
  IC50: > 1000 nM

## CCCN1CC[C@@H]2Cc3c(O)cccc3C[C@H]21 (racemic)
[1]
  Locomotor activity: 71
[16]
  Ki: 17 nM
[3]
  Locomotor activity: 423
[26]
  Locomotor activity: 38
[27]
  Locomotor activity: 69
[28]
  Locomotor activity: 912
[7]
  Ki: 2.4 nM
[29]
  Locomotor activity: 1539
[30]
  Locomotor activity: 114
[11]
  Locomotor activity: 41
[31]
  Locomotor activity: 46
[32]
  Control: -47%
[33]
  Control: -4%
[34]
  ED50: 0.003 µmol/kg
[35]
  Locomotor activity: 23
[36]
  Locomotor activity: 29
[13]
  Locomotor activity: 98

## C=CCN1CC[C@@H]2Cc3c(cccc3OC)C[C@@H]21 (racemic)
[16]
  Ki: 429 nM

## C=CCN1CC[C@@H]2Cc3c(O)cccc3C[C@H]21 (racemic)
[1]
  Locomotor activity: 77
[16]
  Ki: 47 nM
[3]
  Locomotor activity: 450
[37]
  Locomotor activity: 123
[38]
  Locomotor activity: 133
[39]
  Locomotor activity: 40
[7]
  Ki: 235 nM
[40]
  Locomotor activity: 55
[11]
  Locomotor activity: 61
[41]
  Locomotor activity: 46
[42]
  ED50: 0.35 µmol/kg
[43]
  Locomotor activity: 54
[44]
  Locomotor activity: 1409
[34]
  ED50: 0.007 µmol/kg
[45]
  Locomotor activity: 1783
[13]
  Locomotor activity: 108

## C=CCN1CC[C@@H]2Cc3cccc(OC)c3C[C@@H]21 (racemic)
[46]
  IC50: > 1000 nM

## CCCN1CC[C@@H]2Cc3c(cccc3OC)C[C@@H]21 (racemic)
[8]
  IC50: > 1000 nM

## CCCN1[C@H](C)C[C@@H]2Cc3cccc(OC)c3C[C@@H]21 (racemic)
[8]
  IC50: > 1000 nM

## C=CCN1CC[C@@H]2Cc3cccc(OC)c3C[C@H]21 (racemic)
[8]
  IC50: > 1000 nM

## Oc1cccc2c1C[C@H]1CCN(CC3CC3)[C@@H]1C2 (racemic)
[1]
  Locomotor activity: 88
[2]
  Locomotor activity: 163
[16]
  Ki: 118 nM
[3]
  Locomotor activity: 1
[4]
  Locomotor activity: 25
[5]
  Locomotor activity: 1033
[6]
  Locomotor activity: 117
[9]
  Locomotor activity: 60
[10]
  Locomotor activity: 49
[11]
  Locomotor activity: 83
[12]
  Locomotor activity: 539
[22]
  Intrinsic activity: 73%
[13]
  Locomotor activity: 129
[14]
  Locomotor activity: 31
